Biological target: T1, Kinesin-like protein KIF18A (Homo sapiens, UniProt Q8NI77)
T1 sequence (Q8NI77 whole entry): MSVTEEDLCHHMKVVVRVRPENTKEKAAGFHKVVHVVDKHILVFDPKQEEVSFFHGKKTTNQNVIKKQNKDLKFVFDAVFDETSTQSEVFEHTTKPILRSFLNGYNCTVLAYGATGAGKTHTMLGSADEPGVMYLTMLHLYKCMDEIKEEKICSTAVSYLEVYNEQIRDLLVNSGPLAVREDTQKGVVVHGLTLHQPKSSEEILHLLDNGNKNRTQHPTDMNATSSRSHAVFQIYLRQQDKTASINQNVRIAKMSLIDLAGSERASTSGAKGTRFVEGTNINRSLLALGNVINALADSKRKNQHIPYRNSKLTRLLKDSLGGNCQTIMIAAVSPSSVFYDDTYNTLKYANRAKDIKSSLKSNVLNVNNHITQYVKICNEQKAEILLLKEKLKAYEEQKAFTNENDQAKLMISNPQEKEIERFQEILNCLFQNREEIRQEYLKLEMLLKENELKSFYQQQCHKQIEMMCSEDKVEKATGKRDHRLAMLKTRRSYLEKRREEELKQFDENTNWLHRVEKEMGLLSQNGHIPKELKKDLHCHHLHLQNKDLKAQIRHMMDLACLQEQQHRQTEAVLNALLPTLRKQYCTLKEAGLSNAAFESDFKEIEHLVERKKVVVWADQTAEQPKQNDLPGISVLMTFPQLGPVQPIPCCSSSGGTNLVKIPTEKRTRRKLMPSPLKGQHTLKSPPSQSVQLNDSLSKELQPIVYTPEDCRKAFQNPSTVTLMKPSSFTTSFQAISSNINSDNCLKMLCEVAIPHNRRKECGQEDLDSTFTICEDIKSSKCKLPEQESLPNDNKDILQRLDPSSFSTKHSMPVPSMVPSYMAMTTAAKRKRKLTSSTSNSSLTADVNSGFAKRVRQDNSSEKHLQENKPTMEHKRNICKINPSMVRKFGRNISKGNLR
Assay: Inhibition of recombinant His-tagged human KIF18A (1 to 467 residues) expressed in baculovirus expression system assessed as inhibition of microtubule-stimulated ATPase activity preincubated for 15 mins followed by ATP addition and further incubated for 15 mins and measured after 40 mins by ADP-Glo reagent based assay

IC50: 48 nM
Structure (SMILES): Cc1cc(NC(=O)c2cnc(S(=O)(=O)C3CC3)cc2N2CCC3(CC2)CC3)nc(N2CCC(F)(F)CC2)n1

From ChEMBL document CHEMBL5052844, “Heteroaryl amides useful as kif18a inhibitors” (2020)
